Earlier results in US20080280955A1, “Methods and compositions for screening and treatment of disorders of blood glucose regulation” (Perlegen Sciences, Inc., priority 2005, published 2008).

Assays:
PPAR-gamma = biological target: T1, PPAR-gamma (Homo sapiens, UniProt P37231); settings: context-specific, depends on cell type
T1 sequence (P37231 1-505): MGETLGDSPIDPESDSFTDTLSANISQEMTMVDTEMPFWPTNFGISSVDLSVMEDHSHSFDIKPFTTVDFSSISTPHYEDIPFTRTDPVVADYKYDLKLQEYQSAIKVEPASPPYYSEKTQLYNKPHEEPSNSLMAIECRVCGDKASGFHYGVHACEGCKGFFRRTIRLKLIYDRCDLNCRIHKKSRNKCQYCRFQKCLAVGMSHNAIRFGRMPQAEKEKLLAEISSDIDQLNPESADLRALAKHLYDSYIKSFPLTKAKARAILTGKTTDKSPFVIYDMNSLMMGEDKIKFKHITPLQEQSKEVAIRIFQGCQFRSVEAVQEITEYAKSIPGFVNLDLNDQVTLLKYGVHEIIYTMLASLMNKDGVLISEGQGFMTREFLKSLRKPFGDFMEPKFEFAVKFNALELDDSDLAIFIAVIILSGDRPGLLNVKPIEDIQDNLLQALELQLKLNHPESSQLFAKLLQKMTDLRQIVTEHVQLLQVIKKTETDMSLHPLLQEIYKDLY

PPAR-delta = biological target: T2, PPAR-delta (Homo sapiens, UniProt Q03181)
T2 sequence (Q03181 1-441): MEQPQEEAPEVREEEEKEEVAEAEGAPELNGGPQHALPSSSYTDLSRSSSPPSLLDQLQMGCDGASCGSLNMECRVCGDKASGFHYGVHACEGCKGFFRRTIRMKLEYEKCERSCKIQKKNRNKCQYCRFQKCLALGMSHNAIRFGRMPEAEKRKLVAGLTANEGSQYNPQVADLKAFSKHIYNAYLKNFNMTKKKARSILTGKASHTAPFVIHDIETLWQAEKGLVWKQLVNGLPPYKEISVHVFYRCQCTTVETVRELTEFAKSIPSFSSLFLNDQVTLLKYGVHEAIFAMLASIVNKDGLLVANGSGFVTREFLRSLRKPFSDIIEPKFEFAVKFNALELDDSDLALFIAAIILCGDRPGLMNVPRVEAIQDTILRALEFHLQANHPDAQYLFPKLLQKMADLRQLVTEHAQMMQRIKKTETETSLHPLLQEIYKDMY

PPAR-alpha = biological target: T3, PPAR-alpha (Homo sapiens, UniProt Q07869)
T3 sequence (Q07869 1-468): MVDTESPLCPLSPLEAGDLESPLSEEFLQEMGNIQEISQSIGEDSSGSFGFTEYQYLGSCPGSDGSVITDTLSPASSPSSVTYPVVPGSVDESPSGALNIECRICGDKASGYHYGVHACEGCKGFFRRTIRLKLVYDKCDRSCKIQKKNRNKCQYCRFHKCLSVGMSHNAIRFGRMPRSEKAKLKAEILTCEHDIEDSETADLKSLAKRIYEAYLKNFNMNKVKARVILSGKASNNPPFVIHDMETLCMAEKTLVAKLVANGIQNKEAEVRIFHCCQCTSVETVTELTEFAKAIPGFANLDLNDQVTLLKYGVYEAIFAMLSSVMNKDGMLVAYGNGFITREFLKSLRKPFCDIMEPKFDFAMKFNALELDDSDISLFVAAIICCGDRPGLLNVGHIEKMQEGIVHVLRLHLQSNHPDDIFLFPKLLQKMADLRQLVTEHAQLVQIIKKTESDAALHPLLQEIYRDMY

modulation of PPAR-delta (PPAR-delta): appears to modulate
modulation of PPAR-alpha (PPAR-alpha): appears to modulate
SMILES: O=C1NC(=O)C(Cc2ccc3cc(OCc4ccccc4F)ccc3c2)S1 (centres unmarked) [netoglitazone, 5-[{6-(2-fluorobenzyl)oxy-2-naphthyl}methyl]-2,4-thiazolidinedione]
behaviour at PPAR-gamma (PPAR-gamma): full agonist of PPAR-gamma and as a partial agonist or antagonist in others
efficacy in lowering plasma glucose, insulin, and triglyceride levels (compared with pioglitazone and troglitazone): more efficacious than pioglitazone and troglitazone
potency relative to rosiglitazone (compared with rosiglitazone): about three-fold
